The results in this text go back to patent US12569485B2, “SMARCA inhibitors and uses thereof” (Kymera Therapeutics, Inc., priority 2019, dated 2026).

The structures appear in SMILES notation. Where a name gives a salt, the structure may show the parent alone.

T1 sequence (P51531 whole entry, the tested form may be a part): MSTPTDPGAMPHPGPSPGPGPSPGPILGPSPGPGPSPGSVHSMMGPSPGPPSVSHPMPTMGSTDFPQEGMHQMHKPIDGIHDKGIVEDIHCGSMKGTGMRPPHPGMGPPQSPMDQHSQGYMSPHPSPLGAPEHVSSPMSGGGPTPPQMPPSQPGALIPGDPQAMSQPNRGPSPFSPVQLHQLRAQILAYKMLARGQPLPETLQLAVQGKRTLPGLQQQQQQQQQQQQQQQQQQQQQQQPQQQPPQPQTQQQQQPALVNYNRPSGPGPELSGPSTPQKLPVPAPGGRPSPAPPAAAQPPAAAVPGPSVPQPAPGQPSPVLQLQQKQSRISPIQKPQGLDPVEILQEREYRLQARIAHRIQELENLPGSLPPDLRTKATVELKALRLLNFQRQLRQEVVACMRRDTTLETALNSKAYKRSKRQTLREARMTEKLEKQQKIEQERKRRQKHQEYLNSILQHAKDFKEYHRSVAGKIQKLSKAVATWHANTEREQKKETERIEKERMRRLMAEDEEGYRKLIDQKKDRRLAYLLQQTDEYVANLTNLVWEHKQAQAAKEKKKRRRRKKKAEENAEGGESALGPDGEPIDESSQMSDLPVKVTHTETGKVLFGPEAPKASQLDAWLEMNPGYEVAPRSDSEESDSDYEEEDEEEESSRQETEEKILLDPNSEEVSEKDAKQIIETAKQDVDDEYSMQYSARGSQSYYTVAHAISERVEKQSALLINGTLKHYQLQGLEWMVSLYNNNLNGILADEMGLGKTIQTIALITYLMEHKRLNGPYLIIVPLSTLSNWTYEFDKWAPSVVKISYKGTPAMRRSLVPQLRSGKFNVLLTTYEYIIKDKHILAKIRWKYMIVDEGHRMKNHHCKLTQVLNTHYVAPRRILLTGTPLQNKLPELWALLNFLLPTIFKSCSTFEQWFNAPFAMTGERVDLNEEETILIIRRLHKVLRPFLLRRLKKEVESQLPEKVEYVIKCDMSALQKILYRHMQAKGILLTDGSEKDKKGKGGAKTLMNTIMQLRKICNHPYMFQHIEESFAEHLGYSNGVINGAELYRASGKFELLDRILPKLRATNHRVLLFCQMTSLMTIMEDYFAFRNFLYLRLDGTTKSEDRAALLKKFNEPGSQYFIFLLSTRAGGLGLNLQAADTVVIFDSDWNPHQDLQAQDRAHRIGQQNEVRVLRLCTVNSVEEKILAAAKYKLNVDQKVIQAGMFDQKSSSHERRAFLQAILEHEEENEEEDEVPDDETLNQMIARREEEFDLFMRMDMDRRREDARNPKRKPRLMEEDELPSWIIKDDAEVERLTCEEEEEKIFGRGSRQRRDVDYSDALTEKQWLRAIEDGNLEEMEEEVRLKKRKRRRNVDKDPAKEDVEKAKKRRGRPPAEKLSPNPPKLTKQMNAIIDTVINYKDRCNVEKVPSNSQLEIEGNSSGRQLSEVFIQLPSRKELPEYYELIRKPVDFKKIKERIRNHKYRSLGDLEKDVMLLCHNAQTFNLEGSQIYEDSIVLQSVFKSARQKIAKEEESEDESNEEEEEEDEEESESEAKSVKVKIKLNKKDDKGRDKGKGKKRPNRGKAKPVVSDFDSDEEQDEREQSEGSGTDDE

This experiment has as its target T1, SMARCA2 (Homo sapiens, UniProt P51531).
T1 construct: fused on or other part: His tag (6His), detected by the anti-6His terbium cryptate antibody
The experiment is described as follows: SMARCA2 HTRF assay. To be noted: His-tagged SMARCA2-17, average, read-out: SMARCA2 binding Human HTRF: Average IC50. As for the experimental part:
Sample handling: 1× Epigenetics Buffer is prepared according to manufacturer's instructions. 32 nM SMARCA2-17 (4×) is prepared with Epigenetics Buffer. 4×Tb working solution is prepared by diluting Mab Anti 6His Tb cryptate Gold in PPI-Terbium Detection buffer to 0.21 ng/μ1 (100× dilution from stock). SMARCA2-mAb-Tb working solution is prepared by mixing equal volume of 32 nM SMARCA2 with Tb working solution. A half-hour timer is started. In a 96-well plate, serial dilution of compound DMSO solutions is prepared. […] of Epigenetics Buffer is placed to a second 96-well plate. 1 μl of the 100× compound DMSO solution is transferred to the second 96-well plate to make 4× compound working solution. 5 μl/well of 4× compound working solution is added into the 384-well plate and mixed well. […] of SMARCA2-mAb-Tb working solution is added into 384-well plate. The above mixtures are incubated at room temperature for 30 min. Data is collected and processed on EnVision. 520 nm/495 nm readouts ratio are calculated from raw data.
The letter codes for SMARCA2 average IC50 (μM) include: A (<1 μM), B (1-50 μM), C (51-200 μM), and D (>200 μM).
Turning to `Oc1ccccc1-c1cc2c(nn1)NC[C@@H]1CN(c3ncccn3)CCN21` [I-106, (R)-2-(8-(pyrimidin-2-yl)-6,6a,7,8,9,10-hexahydro-5H-pyrazino[1′,2′:4,5]pyrazino[2,3-c]pyridazin-2-yl)phenol], the IC50 (as a rule, the concentration that gives 50% inhibition) was under 1 µM.

On to `COCCNc1nnc(-c2ccccc2O)cc1N1CCNCC1` [I-101, 2-[6-(2-methoxyethylamino)-5-piperazin-1-yl-pyridazin-3-yl]phenol], for which the IC50 is over 200 µM.

As to `CC(=O)n1ncc2c(-c3cnn(C)c3)c(N)ncc21` [I-126, 1-[5-amino-4-(1-methylpyrazol-4-yl)pyrazolo[3,4-c]pyridine-1-yl]ethanone], the IC50 is over 200 µM.

On to `C[C@@H]1c2c([nH]c3nnc(-c4ccccc4O)cc23)CCN1c1nccc(C2CCNCC2)n1` [I-110, (R)-2-(5-methyl-6-(4-(piperidin-4-yl)pyrimidin-2-yl)-6,7,8,9-tetrahydro-5H-pyrido[3′,4′:4,5]pyrrolo[2,3-c]pyridazin-3-yl)phenol], for which the IC50 was under 1 µM.

On to `O=C1Nc2nnc(-c3ccccc3O)cc2C12CCN(c1ccccc1)CC2` [I-64, 3-(2-hydroxyphenyl)-1′-phenyl-spiro [7H-pyrrolo[2,3-c]pyridazine-5,4′-piperidine]-6-one], for which the IC50 was 1 to 50 µM.

As for `Nc1ncc2c(Cl)cccc2c1N1CCNCC1` [I-74, 8-chloro-4-(piperazin-1-yl)isoquinolin-3-amine], the IC50 is over 200 µM.

Take `Nc1ncc(N2CCNCC2=O)cc1N1CCNCC1` [I-73, 1-(6-amino-5-piperazin-1-yl-3-pyridyl)piperazin-2-one]: the IC50 is over 200 µM.

As for `C[C@@H]1NCCc2[nH]c3nnc(-c4ccccc4O)cc3c21` [I-117], the IC50 is 51 to 200 µM.

As for `Oc1ccccc1-c1cc2c(nn1)NCC1CNCCN21` (centres unmarked) [I-120, 2-(6,6a,7,8,9,10-hexahydro-5H-pyrazino[1′,2′:4,5]pyrazino[2,3-c]pyridazin-2-yl)phenol 2,2,2-trifluoroacetate], the IC50 was 1 to 50 µM.

Take `CC(=O)Nc1cnc(N)c(-c2cnn(C)c2)c1C` [I-129, N-[6-amino-4-methyl-5-(1-methylpyrazol-4-yl)-3-pyridyl]acetamide]: the IC50 was over 200 µM.

Turning to `C[C@H]1c2c([nH]c3nnc(-c4ccccc4O)cc23)CCN1c1nccc(C2CCNCC2)n1` [I-111, (S)-2-(5-methyl-6-(4-(piperidin-4-yl)pyrimidin-2-yl)-6,7,8,9-tetrahydro-5H-pyrido[3′,4′:4,5]pyrrolo[2,3-c]pyridazin-3-yl)phenol], the IC50 is under 1 µM.

Regarding `Oc1ccccc1-c1cc2c(cc3n2CCN(c2ncccn2)C3)nn1` [I-123, 2-(8-(pyrimidin-2-yl)-6,7,8,9-tetrahydropyrazino[1′,2′:1,5]pyrrolo[3,2-c]pyridazin-3-yl)phenol], the IC50 is 1 to 50 µM.

With `C[C@H]1c2c([nH]c3nnc(-c4ccccc4O)cc23)CCN1c1ncc(C2CCNCC2)cn1` [I-113, (S)-2-(5-methyl-6-(5-(piperidin-4-yl)pyrimidin-2-yl)-6,7,8,9-tetrahydro-5H-pyrido[3′,4′:4,5]pyrrolo[2,3-c]pyridazin-3-yl)phenol], the IC50 was under 1 µM.

Consider `C[C@H]1NCCc2[nH]c3nnc(-c4ccccc4O)cc3c21` [I-115, (R)-2-(5-methyl-6,7,8,9-tetrahydro-5H-pyrido[3′,4′:4,5]pyrrolo[2,3-c]pyridazin-3-yl)phenol], for which the IC50 fell in the range of 51 to 200 µM.

Turning to `O=C1Nc2nnc(-c3ccccc3O)cc2C12CCN(Cc1ccccc1)CC2` [I-121, 1′-benzyl-3-(2-hydroxyphenyl)spiro[7H-pyrrolo[2,3-c]pyridazine-5,4′-piperidine]-6-one], the IC50 was in the range of 1 to 50 µM.

Turning to `Nc1ncc(N2CCNC2=O)cc1N1CCNCC1` [I-71, 1-(6-amino-5-piperazin-1-yl-3-pyridyl)imidazolidin-2-one], the IC50 was over 200 µM.

As to `O=C1NCCc2[nH]c3nnc(-c4ccccc4O)cc3c21` [I-119, 3-(2-hydroxyphenyl)-6,7,8,9-tetrahydro-5H-pyrido[3′,4′:4,5]pyrrolo[2,3-c]pyridazin-5-one], the IC50 was in the range of 1 to 50 µM.

Regarding `Oc1ccccc1-c1cc2c(nn1)[nH]c1ccc(C3CCNCC3)cc12` [I-114, 2-(6-(piperidin-4-yl)-9H-pyridazino[3,4-b]indol-3-yl)phenol], the IC50 is under 1 µM.

On to `Oc1ccccc1-c1ccc(NC2CCNCC2)nn1` [I-127, 2-[6-(4-piperidylamino)pyridazin-3-yl]phenol], for which the IC50 was in the range of 1 to 50 µM.

Take `O=c1[nH]c2nnc(-c3ccccc3O)cc2n2cc(C3CCNCC3)cc12` [I-125, 2-(2-hydroxyphenyl)-8-(piperidin-4-yl)pyrrolo[1′,2′:4,5]pyrazino[2,3-c]pyridazin-6(5H)-one]: the IC50 was in the range of 1 to 50 µM.

For `O=c1[nH]c2nnc(-c3ccccc3O)cc2c2c1CNCC2` [I-2, 2-(2-hydroxyphenyl)-7,8,9,10-tetrahydro-5H-pyridazino[3,4-c][2,7]naphthyridin-6-one], the IC50 was in the range of 1 to 50 µM.

Consider `C[C@@H]1c2c([nH]c3nnc(-c4ccccc4O)cc23)CCN1c1ncc(C2CCNCC2)cn1` [I-112, (R)-2-(5-methyl-6-(5-(piperidin-4-yl)pyrimidin-2-yl)-6,7,8,9-tetrahydro-5H-pyrido[3′,4′:4,5]pyrrolo[2,3-c]pyridazin-3-yl)phenol], for which the half-maximal inhibitory concentration (IC50) is under 1 µM.

As for `C[C@@H]1c2c([nH]c3nnc(-c4ccccc4O)cc23)CCN1c1ncccn1` [I-116, (R)-2-(5-methyl-6-(pyrimidin-2-yl)-6,7,8,9-tetrahydro-5H-pyrido[3′,4′:4,5]pyrrolo[2,3-c]pyridazin-3-yl)phenol], the IC50 is under 1 µM.

For `Oc1ccccc1-c1cc(N2CCNCC2)c(NC2COC2)nn1` [I-128, 2-[6-(oxetan-3-ylamino)-5-piperazin-1-yl-pyridazin-3-yl]phenol], the IC50 is 51 to 200 µM.

Take `Oc1ccccc1-c1cc2c(nn1)NC[C@H]1CNCCN21` [I-108, (R)-2-(6,6a,7,8,9,10-hexahydro-5H-pyrazino[1′,2′:4,5]pyrazino[2,3-c]pyridazin-2-yl)phenol]: the IC50 fell in the range of 1 to 50 µM.

For `Nc1ncc(N2C(=O)CCC2=O)cc1N1CCNCC1` [I-70, 1-(6-amino-5-(piperazin-1-yl)pyridin-3-yl)pyrrolidine-2,5-dione], the IC50 was over 200 µM.

With `C[C@H]1c2c([nH]c3nnc(-c4ccccc4O)cc23)CCN1c1ncccn1` [I-118, (S)-2-(5-methyl-6-(pyrimidin-2-yl)-6,7,8,9-tetrahydro-5H-pyrido[3′,4′:4,5]pyrrolo[2,3-c]pyridazin-3-yl)phenol], the IC50 was under 1 µM.

Take `Oc1ccccc1-c1cc2c(nn1)NC[C@H]1CN(c3ncccn3)CCN21` [I-107, (S)-2-(8-(pyrimidin-2-yl)-6,6a,7,8,9,10-hexahydro-5H-pyrazino[1′,2′:4,5]pyrazino[2,3-c]pyridazin-2-yl)phenol]: the IC50 is under 1 µM.

For the compound `O=C1Nc2nnc(-c3ccccc3O)cc2C12CCNCC2` [I-7, 3-(2-hydroxyphenyl)spiro[7H-pyrrolo[2,3-c]pyridazine-5,4′-piperidine]-6-one], the IC50 was over 200 µM.

For `O=c1[nH]c2nnc(-c3ccccc3O)cc2c2c1CCNC2` [I-1, 9-(2-hydroxyphenyl)-1,2,3,4-tetrahydropyridazino[3,4-c][2,6]naphthyridin-5(6H)-one hydrochloride], the IC50 was in the range of 1 to 50 µM.

Consider `CC(C)(C)OC(=O)N1CC=C(c2cc3c(=O)[nH]c4nnc(-c5ccccc5O)cc4n3c2)CC1` [I-124, tert-butyl 4-(2-(2-hydroxyphenyl)-6-oxo-5,6-dihydropyrrolo[1′,2′:4,5]pyrazino[2,3-c]pyridazin-8-yl)-5,6-dihydropyridine-1(2H)-carboxylate], for which the IC50 was in the range of 1 to 50 µM.

Regarding `CC(=O)Nc1nnc(-c2ccccc2O)cc1N1CCNCC1` [I-102, N-[6-(2-hydroxyphenyl)-4-piperazin-1-yl-pyridazin-3-yl]acetamide], the IC50 lay within 51 to 200 µM.
